Experimental data reported in PubChem BioAssay AID330 (DTP/NCI, 2004).
Values joined by “and” are separate entries in the source; they are usually repeats but may differ in a detail not shown here. Identical values can stand only once. Toxic doses and inconclusive results are not listed. Rule for the calls: active = survival T/C of 150% or more; inactive = T/C below 125% in these data.

System: P388 leukemia ip, CD2F1 mice, survival T/C
Assay: NCI In Vivo Anticancer Drug Screen. Data for tumor model P388 Leukemia (intraperitoneal) in CD2F1 (CDF1) mice
Conditions: endpoint: median survival time, higher = longer survival
In short: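 Mice carrying the transplanted tumor received test compound or vehicle. Survival was recorded in each group, and the value is the treated-group measurement divided by that of the vehicle-treated control group.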

[1] = dose: 50.0 mg/kg/injection, schedule: Q01DX005 (ip), vehicle: saline with Tween-80
[2] = dose: 100.0 mg/kg/injection, schedule: Q01DX005 (ip), vehicle: saline with Tween-80
[3] = dose: 50.0 mg/kg/injection, schedule: Q01DX009 (ip), vehicle: Klucel (hydroxypropylcellulose) (HPC)
[4] = dose: 100.0 mg/kg/injection, schedule: Q01DX009 (ip), vehicle: Klucel (hydroxypropylcellulose) (HPC)
[5] = dose: 200.0 mg/kg/injection, schedule: Q01DX009 (ip), vehicle: Klucel (hydroxypropylcellulose) (HPC)

Measured: T/C

CC1=C(c2ccccc2)OS(=O)(=O)NC1=O
inactive: dose: 25.0 mg/kg/injection, schedule: Q01DX009 (ip), vehicle: water 114 % of control | dose: 50.0 mg/kg/injection, schedule: Q01DX009 (ip), vehicle: water 104 % of control | dose: 100.0 mg/kg/injection, schedule: Q01DX009 (ip), vehicle: water 106 % of control | dose: 200.0 mg/kg/injection, schedule: Q01DX009 (ip), vehicle: water 103 % of control | dose: 400.0 mg/kg/injection, schedule: Q01DX009 (ip), vehicle: water 113 % of control

O=[N+]([O-])c1c(NC2(CO)CCCC2)ncnc1NC1(CO)CCCC1
inactive: dose: 65.5 mg/kg/injection, schedule: Q04DX003 (ip), vehicle: Klucel (hydroxypropylcellulose) (HPC) 97 % of control | dose: 131.0 mg/kg/injection, schedule: Q04DX003 (ip), vehicle: Klucel (hydroxypropylcellulose) (HPC) 105 % of control | dose: 262.0 mg/kg/injection, schedule: Q04DX003 (ip), vehicle: Klucel (hydroxypropylcellulose) (HPC) 102 % of control

C[C](C)(C)[Sn](=[O])[C](C)(C)C
inactive: dose: 6.25 mg/kg/injection, schedule: Q01DX009 (ip), vehicle: saline 95 % of control | dose: 12.5 mg/kg/injection, schedule: Q01DX009 (ip), vehicle: saline 97 % of control | dose: 25.0 mg/kg/injection, schedule: Q01DX009 (ip), vehicle: saline 99 % of control

CC(N)CC(N)CC(=O)O (stereo not given)
inactive: dose: 60.0 mg/kg/injection, schedule: Q01DX005 (ip), vehicle: saline 100 % of control and 99 % of control | dose: 120.0 mg/kg/injection, schedule: Q01DX005 (ip), vehicle: saline 102 % of control and 100 % of control | dose: 240.0 mg/kg/injection, schedule: Q01DX005 (ip), vehicle: saline 90 % of control and 91 % of control

O=[N+]([O-])/C=C/c1cc(Cl)c(/C=C/[N+](=O)[O-])cc1Cl
inactive: dose: 50.0 mg/kg/injection, schedule: Q01DX005 (ip), vehicle: Klucel (hydroxypropylcellulose) (HPC) 108 % of control and 121 % of control | dose: 100.0 mg/kg/injection, schedule: Q01DX005 (ip), vehicle: Klucel (hydroxypropylcellulose) (HPC) 120 % of control and 122 % of control | dose: 200.0 mg/kg/injection, schedule: Q01DX005 (ip), vehicle: Klucel (hydroxypropylcellulose) (HPC) 106 % of control and 123 % of control | dose: 400.0 mg/kg/injection, schedule: Q01DX005 (ip), vehicle: Klucel (hydroxypropylcellulose) (HPC) 97 % of control

COc1cccc(C(=O)Nc2ccccc2-c2ccccc2)c1OC
inactive: [1] 97 % of control | [2] 95 % of control | dose: 200.0 mg/kg/injection, schedule: Q01DX005 (ip), vehicle: saline with Tween-80 87 % of control

CCO/C=C1\SC(=S)N(c2ccc(O)cc2)C1=O
inactive: dose: 100.0 mg/kg/injection, schedule: Q04DX003 (ip), vehicle: saline 113 % of control | dose: 200.0 mg/kg/injection, schedule: Q04DX003 (ip), vehicle: saline 113 % of control | dose: 400.0 mg/kg/injection, schedule: Q04DX003 (ip), vehicle: saline 109 % of control

COc1cc(NC(=O)c2ccc(NC(=O)c3ccc(N)cc3)cc2)c(OC)cc1N=Nc1cc(C)c(N=Nc2cc(S(=O)(=O)O)c3cccc(S(=O)(=O)O)c3c2)cc1C
inactive: [1] 100 % of control | [2] 94 % of control

O=C(O)Cc1cn2cc(Br)ccc2n1
inactive: dose: 100.0 mg/kg/injection, schedule: Q01DX001 (ip), vehicle: saline with Tween-80 105 % of control | dose: 200.0 mg/kg/injection, schedule: Q01DX001 (ip), vehicle: saline with Tween-80 109 % of control | dose: 400.0 mg/kg/injection, schedule: Q01DX001 (ip), vehicle: saline with Tween-80 104 % of control

CCCCCCC(C/C=C\CCCCCCCC(=O)OC)OC(C)=O (stereo not given)
inactive: dose: 100.0 mg/kg/injection, schedule: Q04DX003 (ip), vehicle: saline with Tween-80 95 % of control | dose: 200.0 mg/kg/injection, schedule: Q04DX003 (ip), vehicle: saline with Tween-80 100 % of control | dose: 400.0 mg/kg/injection, schedule: Q04DX003 (ip), vehicle: saline with Tween-80 104 % of control

N#Cc1nnc2cc(-c3ccccc3)nn2c1C1CC1
inactive: dose: 60.0 mg/kg/injection, schedule: Q01DX005 (ip), vehicle: Klucel (hydroxypropylcellulose) (HPC) 96 % of control | dose: 120.0 mg/kg/injection, schedule: Q01DX005 (ip), vehicle: Klucel (hydroxypropylcellulose) (HPC) 96 % of control | dose: 240.0 mg/kg/injection, schedule: Q01DX005 (ip), vehicle: Klucel (hydroxypropylcellulose) (HPC) 100 % of control

COC(=O)[C@@H]1[C@@H]2O[C@@H]2[C@H]2O[C@H]2[C@H]1C(=O)O
inactive: dose: 6.25 mg/kg/injection, schedule: Q01DX001 (ip), vehicle: Klucel (hydroxypropylcellulose) (HPC) 113 % of control | dose: 12.5 mg/kg/injection, schedule: Q01DX001 (ip), vehicle: Klucel (hydroxypropylcellulose) (HPC) 103 % of control | dose: 25.0 mg/kg/injection, schedule: Q01DX001 (ip), vehicle: Klucel (hydroxypropylcellulose) (HPC) 100 % of control | dose: 50.0 mg/kg/injection, schedule: Q01DX001 (ip), vehicle: Klucel (hydroxypropylcellulose) (HPC) 99 % of control

CCOC(=O)Cc1ccc(-c2cn3c(n2)sc2ccccc23)cc1
inactive: [3] 112 % of control | [4] 103 % of control | [5] 100 % of control

O=C1CCSC(=S)N1C(=O)c1ccccc1
inactive: [3] 104 % of control | [4] 104 % of control | [5] 109 % of control
